Consider 6 compounds from US9453062B2, “Glucose dependent insulinotropic polypeptide analogs, pharmaceutical compositions and use thereof” (Beijing Hanmi Pharmaceutical Co., Ltd., priority 2011, dated 2016).

Read-outs that look alike come from different tables or passages of the source. Where a SMILES comes first, the peptide text is derived from it. Bridges are numbered along the chain shown (N, C = ends). Where no end group is shown, it is not given here. [ ]: non-standard residue; d: D form. The star is where a group is joined. Palmitoyl = CCCCCCCCCCCCCCCC(=O)*; Aib = CC(C)(N)C(=O)O

One test deals with T1, hGLP-1R (Homo sapiens, UniProt P43220).
T1 construct: expressed in transfected cells; host or cells: CHO
T1 sequence (P43220 24-463): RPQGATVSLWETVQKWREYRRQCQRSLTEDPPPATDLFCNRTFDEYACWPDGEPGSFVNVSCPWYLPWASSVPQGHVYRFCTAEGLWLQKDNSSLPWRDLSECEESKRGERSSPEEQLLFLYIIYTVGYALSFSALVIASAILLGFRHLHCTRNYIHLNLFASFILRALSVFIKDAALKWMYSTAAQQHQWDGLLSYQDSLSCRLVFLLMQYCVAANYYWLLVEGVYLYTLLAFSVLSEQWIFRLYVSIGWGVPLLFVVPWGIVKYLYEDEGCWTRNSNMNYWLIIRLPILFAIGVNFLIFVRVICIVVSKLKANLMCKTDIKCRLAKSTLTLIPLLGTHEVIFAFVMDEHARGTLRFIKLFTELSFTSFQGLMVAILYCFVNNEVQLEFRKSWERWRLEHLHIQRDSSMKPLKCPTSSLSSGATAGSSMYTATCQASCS
Description: hGLP-1R-mediated cAMP induction assay in CHO cell line.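 Note: CHO cells expressing human GLP-1R, treated 30 min at 37 °C, intracellular cAMP measured by competitive fluorescent immunoassay and converted via a cAMP standard curve.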 In kind it is cell-based.

In another test the target is T2, hGIPR (Homo sapiens, UniProt P48546).
T2 construct: expressed in transfected cells; host or cells: CHO
T2 sequence (P48546 22-466): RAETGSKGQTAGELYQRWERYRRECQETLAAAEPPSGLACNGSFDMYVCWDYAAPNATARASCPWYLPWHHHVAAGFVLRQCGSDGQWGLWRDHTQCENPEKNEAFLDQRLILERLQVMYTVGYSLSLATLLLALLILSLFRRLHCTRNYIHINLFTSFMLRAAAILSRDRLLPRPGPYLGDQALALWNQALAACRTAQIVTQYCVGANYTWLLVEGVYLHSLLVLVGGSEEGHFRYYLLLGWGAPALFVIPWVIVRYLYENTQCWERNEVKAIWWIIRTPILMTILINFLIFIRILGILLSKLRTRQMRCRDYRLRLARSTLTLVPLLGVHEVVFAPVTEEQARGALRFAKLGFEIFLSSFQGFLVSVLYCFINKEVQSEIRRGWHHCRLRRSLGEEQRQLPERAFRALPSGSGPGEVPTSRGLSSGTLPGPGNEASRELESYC
Description: hGIPR-mediated cAMP induction assay in CHO cell line. In kind it is cell-based.

Description for hGIPR: The cAMP in the sample or standard competes with horseradish peroxidase (HRP)-labeled cAMP conjugate for binding sites on the anti-cAMP antibodies. In the absence of cAMP, most of the HRP-cAMP conjugate is bound to the antibody. Increasing concentrations of cAMP competitively decrease the amount of bound conjugate, thus decreasing measured HRP activity.
Assay kit: CatchPoint™ Cyclic-AMP Fluorescent Assay Kit (Molecular Devices, Product # R8088)
Cell lines: CHO hGLP1R, CHO hGIPR
Cell seeding: CHO hGLP1R or CHO hGIPR cells: 10,000 cells/well/100 uL at 37° C. 5% CO2 overnight.
Gently aspirate off media and wash the cells with KRBG Buffer, 100 uL/well.
Incubate the plate for 10 min at room temperature. Then add the KRBG buffer with 3× final concentration of the tested samples (5-foled series diluted from 5,000 nM), 50 uL/well. Incubate the plate at 37° C. 5% CO2 for 30 min.
Add 50 uL of Lysis buffer to each well and put the plate on a shaker for 10 min.
Place 40 uL of samples and analyze in appropriate wells. And test the cAMP concentration in each sample by following the manufacture's instruction.
Detect the fluorescence signal at Ex: 490 nm and Em: 530 nm. Transfer the FI signal to cAMP concentration by the cAMP standard curve. The Dose-response curve and EC50 were obtained by logistic fitting of Origin 8.

As for `CC[C@H](C)[C@H](NC(=O)[C@H](Cc1ccccc1)NC(=O)[C@H](CCC(=O)O)NC(=O)[C@H](CCCNC(=N)N)NC(=O)[C@@H](NC(=O)[C@H](C)NC(=O)[C@H](CCC(=O)O)NC(=O)[C@H](CCCCN)NC(=O)[C@H](CCC(=O)O)NC(=O)[C@H](CCSC)NC(=O)[C@H](Cc1ccc(O)cc1)NC(=O)[C@@H](NC(=O)[C@H](CO)NC(=O)[C@H](Cc1ccc(O)cc1)NC(=O)[C@H](CC(=O)O)NC(=O)[C@H](CO)NC(=O)[C@@H](NC(=O)[C@H](Cc1ccccc1)NC(=O)[C@@H](NC(=O)CNC(=O)[C@H](CCC(=O)O)NC(=O)C(C)(C)NC(=O)[C@@H](N)Cc1ccc(O)cc1)[C@@H](C)O)[C@@H](C)O)[C@@H](C)CC)C(C)C)C(=O)N[C@@H](C)C(=O)N[C@@H](Cc1c[nH]c2ccccc12)C(=O)N[C@@H](CC(C)C)C(=O)N[C@H](C(=O)N[C@@H](CCCCN)C(=O)NCC(N)=O)C(C)C` [Compounds 023] (H-Y[Aib]EGTFTSDYSIYMEKEAVREFIAWLVKG-NH2), the EC50 on hGLP-1R (Table 1, CHO/hGLP-1R cells, read-out: GLP-1R EC50) turned out to be 1.28 nM; on hGIPR (Table 1, CHO/hGIPR cells, read-out: GIPR EC50) it was 0.088 nM. Moreover, the “GLP-1R Relative Potency” value on hGLP-1R (Table 1, against native GLP-1) was 75%. In addition, at hGLP-1R (Table 3, against native GLP-1), the “GLP-1 Receptor Relative Potency” value amounted to 75. Besides, the “GIPR Relative Potency” value on hGIPR (Table 1, against native GIP) is listed as 106.8%. The “GIP Receptor Relative Potency” value at hGIPR (Table 3, against native GIP) is 106.8.
With `CC[C@H](C)[C@H](NC(=O)[C@H](Cc1ccccc1)NC(=O)[C@H](CCC(=O)O)NC(=O)[C@H](CCCNC(=N)N)NC(=O)[C@@H](NC(=O)[C@H](C)NC(=O)[C@H](CCC(=O)O)NC(=O)[C@@H]1CCCCNC(=O)CC[C@H](NC(=O)[C@H](CO)NC(=O)[C@H](Cc2ccc(O)cc2)NC(=O)[C@H](CC(=O)O)NC(=O)[C@H](CO)NC(=O)[C@@H](NC(=O)[C@H](Cc2ccccc2)NC(=O)[C@@H](NC(=O)CNC(=O)[C@H](CCC(=O)O)NC(=O)C(C)(C)NC(=O)[C@@H](N)Cc2ccc(O)cc2)[C@@H](C)O)[C@@H](C)O)C(=O)N[C@@H](Cc2ccc(O)cc2)C(=O)N[C@@H](CCSC)C(=O)N[C@@H](CCC(=O)O)C(=O)N1)C(C)C)C(=O)N[C@@H](C)C(=O)N[C@@H](Cc1c[nH]c2ccccc12)C(=O)N[C@@H](CC(C)C)C(=O)N[C@H](C(=O)N[C@@H](CCCCN)C(=O)NCC(=O)NCC(=O)N1CCC[C@H]1C(=O)N[C@@H](CO)C(=O)N[C@@H](CO)C(=O)NCC(=O)N[C@@H](C)C(=O)N1CCC[C@H]1C(=O)N1CCC[C@H]1C(=O)N1CCC[C@H]1C(=O)N[C@@H](CO)C(N)=O)C(C)C` [Compound 081] (H-Y[Aib]EGTFTSDYSEYMEKEAVREFIAWLVKGGPSSGAPPPS-NH2; lactam 12-16), the EC50 on hGLP-1R (Table 3, CHO hGLP1R cells) stood at 0.77 nM; on hGIPR (Table 3, CHO hGIPR cells), 0.044 nM. Besides, at hGLP-1R (Table 3, against native GLP-1), the “GLP-1 Receptor Relative Potency” value is 124.3. Further, the “GIP Receptor Relative Potency” value on hGIPR (Table 3, against native GIP) is reported as 250.
In the case of `CCCCCCCCCCCCCCCC(=O)N[C@@H](CCC(=O)NCCCC[C@H](NC(=O)[C@H](CO)NC(=O)[C@@H]1CCCN1C(=O)[C@@H]1CCCN1C(=O)[C@@H]1CCCN1C(=O)[C@H](C)NC(=O)CNC(=O)[C@H](CO)NC(=O)[C@H](CO)NC(=O)[C@@H]1CCCN1C(=O)CNC(=O)CNC(=O)[C@H](CCCCN)NC(=O)[C@@H](NC(=O)[C@H](CC(C)C)NC(=O)[C@H](Cc1c[nH]c2ccccc12)NC(=O)[C@H](C)NC(=O)[C@@H](NC(=O)[C@H](Cc1ccccc1)NC(=O)[C@H](CCC(=O)O)NC(=O)[C@H](CCCNC(=N)N)NC(=O)[C@@H](NC(=O)[C@H](C)NC(=O)[C@H](CCC(=O)O)NC(=O)[C@H](CCCCN)NC(=O)[C@H](CCC(=O)O)NC(=O)[C@H](CCSC)NC(=O)[C@H](Cc1ccc(O)cc1)NC(=O)[C@@H](NC(=O)[C@H](CO)NC(=O)[C@H](Cc1ccc(O)cc1)NC(=O)[C@H](CC(=O)O)NC(=O)[C@H](CO)NC(=O)[C@@H](NC(=O)[C@H](Cc1ccccc1)NC(=O)[C@@H](NC(=O)CNC(=O)[C@H](CCC(=O)O)NC(=O)C(C)(C)NC(=O)[C@@H](N)Cc1ccc(O)cc1)[C@@H](C)O)[C@@H](C)O)[C@@H](C)CC)C(C)C)[C@@H](C)CC)C(C)C)C(N)=O)C(=O)O` [Compound 090], the EC50 was 0.188 nM at hGLP-1R (Table 3, CHO hGLP1R cells) and 0.009 nM at hGIPR (Table 3, CHO hGIPR cells). Also, the “GLP-1 Receptor Relative Potency” value on hGLP-1R (Table 3, against native GLP-1) was determined as 568.6. The “GIP Receptor Relative Potency” value on hGIPR (Table 3, against native GIP) is listed as 1311.
As to `CCCCCCCCCCCCCCCC(=O)NCCCC[C@H](NC(=O)[C@H](CO)NC(=O)[C@@H]1CCCN1C(=O)[C@@H]1CCCN1C(=O)[C@@H]1CCCN1C(=O)[C@H](C)NC(=O)CNC(=O)[C@H](CO)NC(=O)[C@H](CO)NC(=O)[C@@H]1CCCN1C(=O)CNC(=O)CNC(=O)[C@H](CCCCN)NC(=O)[C@@H](NC(=O)[C@H](CC(C)C)NC(=O)[C@H](Cc1c[nH]c2ccccc12)NC(=O)[C@H](CS)NC(=O)[C@@H](NC(=O)[C@H](Cc1ccccc1)NC(=O)[C@H](CCC(=O)O)NC(=O)[C@H](CCCNC(=N)N)NC(=O)[C@@H](NC(=O)[C@H](C)NC(=O)[C@H](CCC(=O)O)NC(=O)[C@H](CCCCN)NC(=O)[C@H](CCC(=O)O)NC(=O)[C@H](CCSC)NC(=O)[C@H](Cc1ccc(O)cc1)NC(=O)[C@@H](NC(=O)[C@H](CO)NC(=O)[C@H](Cc1ccc(O)cc1)NC(=O)[C@H](CC(=O)O)NC(=O)[C@H](CO)NC(=O)[C@@H](NC(=O)[C@H](Cc1ccccc1)NC(=O)[C@@H](NC(=O)CNC(=O)[C@H](CCC(=O)O)NC(=O)C(C)(C)NC(=O)[C@@H](N)Cc1ccc(O)cc1)[C@@H](C)O)[C@@H](C)O)[C@@H](C)CC)C(C)C)[C@@H](C)CC)C(C)C)C(N)=O` [Compound 096] (H-Y[Aib]EGTFTSDYSIYMEKEAVREFICWLVKGGPSSGAPPPSK(Palmitoyl)-NH2), the EC50 is 0.253 nM on hGLP-1R (Table 3, CHO hGLP1R cells) and 0.1 nM at hGIPR (Table 3, CHO hGIPR cells). Further, on hGLP-1R (Table 3, against native GLP-1), the “GLP-1 Receptor Relative Potency” value amounted to 404.7. Further, the “GIP Receptor Relative Potency” value on hGIPR (Table 3, against native GIP) is 42.
For “Y[Aib]EGTFTSDYSIYMEKEAVREFIAWLVKGGPSSGAPPPSKKKKKK-NH2 [Compound 071]” the same measures were 3.8 nM, 0.77 nM, 25.1 and 22.1.
On to `CC[C@H](C)[C@H](NC(=O)[C@H](CO)NC(=O)[C@H](Cc1ccc(O)cc1)NC(=O)[C@H](CC(=O)O)NC(=O)[C@H](CO)NC(=O)[C@@H](NC(=O)[C@H](Cc1ccccc1)NC(=O)[C@@H](NC(=O)CNC(=O)[C@H](CCC(=O)O)NC(=O)C(C)(C)NC(=O)[C@@H](N)Cc1ccc(O)cc1)[C@@H](C)O)[C@@H](C)O)C(=O)N[C@@H](Cc1ccc(O)cc1)C(=O)N[C@@H](CCSC)C(=O)N[C@@H](CCC(=O)O)C(=O)N[C@@H](CCCCN)C(=O)N[C@@H](CCC(=O)O)C(=O)N[C@@H](C)C(=O)N[C@H](C(=O)N[C@@H](CCCNC(=N)N)C(=O)N[C@@H](CCC(=O)O)C(=O)N[C@@H](Cc1ccccc1)C(=O)N[C@H](C(=O)N[C@@H](CCC(=O)O)C(=O)N[C@@H](Cc1c[nH]c2ccccc12)C(=O)N[C@@H](CC(C)C)C(=O)N[C@H](C(=O)N[C@@H](CCCCN)C(=O)NCC(N)=O)C(C)C)[C@@H](C)CC)C(C)C` [Compound 054-1] (H-Y[Aib]EGTFTSDYSIYMEKEAVREFIEWLVKG-NH2), for which the half-maximal effective concentration (EC50) on hGLP-1R (Table 3, CHO hGLP1R cells) was determined as 2.99 nM; at hGIPR (Table 3, CHO hGIPR cells), 0.27 nM. The “GIP Receptor Relative Potency” value on hGIPR (Table 3, against native GIP) came to 77.7.
